# Laboratory results from patent US5519043A, “Fluorenyl derivatives” (Scios Nova Inc., priority 1993, dated 1996).
# Columns and labels:
# [1] = test system: plasma fibrinogen in arthritis model; test: Adjuvant arthritis test: inhibition of adjuvant-elevated plasma fibrinogen in rats; format: in vivo, Male Sprague Dawley rats; conditions: rat
# [2] = test system: reverse passive Arthus reaction (blueing by antigen and antibody); test: Reverse Passive Arthus Reaction (RPA); format: in vivo, Male SD rats; conditions: rat
# Experimental: Male SD rats weighing between 200 and 300 g were used. Test compounds were dissolved in dimethyl sulfoxide and 1 ml/kg of this stock solution (100 mg/ml), on serial dilutions were injected intraperitoneally one hour before administration of the antigen or given orally. The animals were anesthetized inhalationally with isoflurane and then injected through the penile vein with 1 ml of a solution of 2.5 mg of Evan's blue dye and 5.0 mg of human serum albumin in 1 ml of saline. This treatment was followed immediately by intracutaneous injections of 0.075 ml of anti-human albumin diluated to contain 4.38 mg/ml of antibody at 2 sites opposite the midline back. Anesthesia was terminated and after three hours, the animals were sacrificed. The skin was removed and the blue stained areas cut out. The skin patches were soaked overnight in stoppered tubes containing 2 ml of 1N potassium hydroxide at 5° C. Then 9 ml of a mixture of five parts of a 1.2N phosphoric acid and thirteen parts of acetone were added to the tubes. The tube contents were agitated and centrifuged, and the absorbance measured at 620 nm. The data were calculated as inhibition of blueing by test compound compared to control animals receiving only antigen and antibody.
# [3] = test system: ear edema caused by oxazolone; test: Inhibition of Ear Edema Caused by Oxazolone; format: in vivo, CF-1 mice; conditions: mouse, 24 hours
# Experimental: CF-1 mice, 25-30 g body weight, six animals per group were used. The mice were sensitized to the irritant two weeks prior to the test by dribbling 100 μL of a 3% solution of oxazolone in acetone onto the scrotum of the animal. Test compounds were administered orally at doses of 100 mg/kg and 300 mg/kg for 1 hour prior to oxazolone, intraperitoneally as follows: The test compound was dissolved in dimethyl sulfoxide and doses of 10 mg/kg, 30 mg/kg, and 100 mg/kg were injected 15 mintures prior to irritant. The irritant, 3% oxazolone in acetone, was added to the surface of the ear, 5 μL added to the upper surface and 5 μL added to the lower surface. After twenty four hours the thickness of the ear was measured to 0.01 mm by a micrometer with loose drag, positioned at the lateral-most edge of the mid-point of the pinna. Data were calculated as the inhibition of increased ear thickness compared to control animals' receiving only the irritant. In general, % inhibition of greater than 20% is statistically significant (p<0.05 or less, Student's t-test for unpaired data).
Structure (SMILES),AA (p.o.) % inhibition at 100 mg/kg (inhibited plasma fibrinogen in arthritis model) ([1]; 100 mg/kg) [%],RPA (p.o.) 100 mg/kg inhibition [2] [%],AA (i.p.) % inhibition at 100 mg/kg (inhibited plasma fibrinogen in arthritis model) ([1]; 100 mg/kg) [%],also measured
"O=C(CCCC1c2ccccc2-c2ccccc21)Nc1ccc(C(=O)O)cc1 [Example 25, 4-[9H-(Fluoren-9-yl)]butyric acid-4-carboxyanilide]",15,0,–,–
O=C(Nc1ccc(C(=O)O)cc1)OCCC1c2cc(Cl)ccc2-c2ccc(Cl)cc21 [Example 9],38,54,78,–
O=C(Nc1ccc(C(=O)O)cc1)SCCC1c2cc(Br)ccc2-c2ccc(Br)cc21 [Example 28],41,1,72,–
"Cc1ccc2c(c1)C(CCOC(=O)Nc1ccc(C(=O)O)cc1)c1cc(C)ccc1-2 [Example 8, N-[9H-(2,7-Dimethylfluorenyl-9-ethoxycarbonyl)]amino-4-benzoic acid]",48,0,69,–
"O=C(Nc1ccc(C(=O)O)cc1)OCCC1c2ccccc2-c2ccccc21 [Example 7, N-[9H-(Fluorenyl-9-ethoxycarbonyl)]amino-4-benzoic acid]",39,25,63,"Plasma fibrinogen level, drug by itself ([1]; 100 mg/kg p.o., n=5, without adjuvant, basal 2.44±0.08 mg/ml): 4.8 ± 0.6 mg/mL; Maximum inhibition of plasma fibrinogen ([1]; given orally, maximum achieved at 3 mg/kg): 50%; Inhibition of increased ear thickness ([3]; i.p., 10 mg/kg): 46%; Inhibition of increased ear thickness ([3]; i.p., 30 mg/kg): 82%; Inhibition of increased ear thickness ([3]; i.p., 100 mg/kg): 79%; Inhibition of increased ear thickness ([3]; orally, dose of this value not stated (100 and 300 mg/kg in method)): 50%"
O=C(Nc1ccc(C(=O)O)cc1)SCCC1c2cc(Cl)ccc2-c2ccc(Cl)cc21 [Example 27],52,–,54,–
"O=C(CCC1c2ccccc2-c2ccccc21)Nc1ccccc1C(=O)O [Example 14, N-[3-(9-Fluorenyl)propionyl]anthranilic acid]",–,–,–,Inhibition of plasma fibrinogen levels ([1]; 10 mg/kg): 22%; Inhibition of plasma fibrinogen levels ([1]; 30 mg/kg): 19%; Inhibition of plasma fibrinogen levels ([1]; 100 mg/kg): 51%
"O=C(Nc1ccc(C(=O)O)cc1)SCCC1c2ccccc2-c2ccccc21 [Example 26, N-[2-(9H-Fluoren-9-yl)ethylthioxycarbonyl]-4-aminobenzoic acid]",56,–,70,–
"O=C(Nc1ccc(C(=O)O)cc1)OCCCC1c2ccccc2-c2ccccc21 [Example 23, 4-[3-(9H-Fluoren-9-yl)propoxycarbonyl]-aminobenzoic acid]",–,1,–,–
